We go through 8 compounds from ChEMBL document CHEMBL1201862, “PubChem BioAssay data set” (2004).

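Five concentrations, 48 hours, 96-well plates. The concentration for 50% growth inhibition is given as GI50.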 Activity calls are given as the source filed them. Cut-off read from the data, not from the text of the source: active = GI50 up to about 1.1 µM and inactive = higher.

Test systems include A549; SF-268; RXF 393; HOP-92; NCI-H522; DLD-1; SR; SF-295; M14; CAKI-1; HL-60; TK-10; IGROV-1; OVCAR-5; UACC-62; HT-29; Malme-3M; U-251; NCI-H226; MDA-MB-231.
Holding throughout (experiment): growth of human tumour cells (NCI), 48 h

For the compound `O=C(C/C(=N\NC(=O)C[n+]1ccccc1)C(=O)Nc1nc2ccc([N+](=O)[O-])cc2s1)CC(c1ccccc1)c1c(O)c2ccccc2oc1=O` (centres undefined), the GI50 with A549 is > 100 µM (inactive); with SF-268 it was > 100 µM (inactive); in the assay on RXF 393 it was > 100 µM (inactive); in the assay on HOP-92, > 100 µM (inactive); in the assay on NCI-H522, 99.5 µM (inactive); with DLD-1, > 100 µM (inactive). Also, the GI50 with SR, in the assay with SF-295, in the assay with M14, with CAKI-1, in the assay on HL-60 and in the assay on TK-10 was > 100 µM (inactive) throughout. For the same compound, the GI50 in the assay on IGROV-1, in the assay on OVCAR-5, in the assay with UACC-62, with HT-29 and with Malme-3M was > 100 µM (inactive) throughout.

Turning to `COc1ncnc2c(NC3OC(CO)C(O)C3O)ncnc12` (centres undefined), the GI50 in the assay with A549 was 0.131 µM (active); in the assay on U-251, 2.51 µM (inactive); with SF-268 it was 0.506 µM (active); with RXF 393 it was 0.794 µM (active); in the assay on HOP-92, 0.0156 µM (active); in the assay with NCI-H522 it was 1.53 µM (inactive). Further, the GI50 was 0.306 µM (active) in the assay with DLD-1; 0.335 µM (active) in the assay with NCI-H226; 0.0266 µM (active) with SR; 0.579 µM (active) with SF-295; 0.296 µM (active) in the assay on M14; 0.267 µM (active) in the assay with CAKI-1. Moreover, the GI50 with HL-60 was 0.0414 µM (active); with TK-10 it was 0.298 µM (active); in the assay on IGROV-1 it was 0.28 µM (active); in the assay with OVCAR-5, 0.569 µM (active); in the assay with MDA-MB-231, 0.149 µM (active); with UACC-62, 0.299 µM (active). For the same compound, the values for the GI50 with HT-29 and with Malme-3M were 0.0685 µM (active) and 2.74 µM (inactive), respectively.

For the compound `Brc1ccc2c(C3CN[C@@H](c4c[nH]c5cc(Br)ccc45)CN3)c[nH]c2c1` (some centres undefined), the GI50 in the assay with A549 is 2.8 µM (inactive); in the assay with U-251, 5.37 µM (inactive); in the assay on SF-268, 4.78 µM (inactive); with RXF 393, 1.55 µM (inactive); in the assay on HOP-92, 1.66 µM (inactive); in the assay on NCI-H522, 2.54 µM (inactive). Further, the GI50 in the assay on DLD-1 is 3.03 µM (inactive); in the assay with NCI-H226 it was 2.13 µM (inactive); in the assay on SR it was 0.968 µM (active); in the assay with SF-295, 3.4 µM (inactive); in the assay on M14, 2.55 µM (inactive); in the assay with CAKI-1, 10.4 µM (inactive). Moreover, the GI50 is 2.42 µM (inactive) in the assay with HL-60; 8.04 µM (inactive) in the assay with TK-10; 5.65 µM (inactive) in the assay with IGROV-1; 2.48 µM (inactive) in the assay with OVCAR-5; 4.37 µM (inactive) in the assay with UACC-62; 2.79 µM (inactive) in the assay on HT-29. Further, the GI50 with Malme-3M was 12.2 µM (inactive).

Consider `CCCCCCCCCCCC[C@@H](O)[C@H]1CC[C@H]([C@H](O)CCCC[C@H](O)CCCCC[C@@H](O)CC2=C[C@H](C)OC2=O)O1`, for which the GI50 in the assay on A549 is 1.29 µM (inactive); with U-251 it was 2.78 µM (inactive); with SF-268, 1.86 µM (inactive); with RXF 393 it was 3.55 µM (inactive); in the assay on HOP-92 it was 2.34 µM (inactive); in the assay on NCI-H522, 0.565 µM (active). The GI50 with DLD-1 was 2.67 µM (inactive); in the assay with NCI-H226, 3.11 µM (inactive); with SR, 2.54 µM (inactive); in the assay on SF-295 it was < 0.0486 µM (active); in the assay with M14 it was 2.45 µM (inactive); in the assay on CAKI-1, 2.64 µM (inactive). In addition, the GI50 was 0.103 µM (active) in the assay on HL-60; 3.07 µM (inactive) with TK-10; 0.61 µM (active) in the assay on IGROV-1; 1.18 µM (inactive) in the assay with OVCAR-5; 3.31 µM (inactive) with MDA-MB-231; 1.87 µM (inactive) in the assay on UACC-62. Moreover, the GI50 with HT-29 was 2.1 µM (inactive); with Malme-3M it was 2.09 µM (inactive).

As for `Cc1nc(=O)n2c(C)n[nH]c2c1C(=O)O`, the GI50 in the assay with U-251 was > 100 µM (inactive); with SF-268, > 100 µM (inactive); in the assay on RXF 393 it was 31.1 µM (inactive); with HOP-92, > 100 µM (inactive); in the assay on NCI-H522 it was > 100 µM (inactive); in the assay with DLD-1 it was > 100 µM (inactive). The GI50 with NCI-H226, in the assay on SR, in the assay with SF-295, in the assay with M14, in the assay with CAKI-1 and in the assay on HL-60 was > 100 µM (inactive) each time. Also, the GI50 in the assay with TK-10, with IGROV-1, in the assay with OVCAR-5, in the assay with UACC-62, with HT-29 and with Malme-3M was > 100 µM (inactive) throughout.

In the case of `CC1(C)CC(=O)C(/C(=N/NC(=S)NN)C(=O)Nc2nc3ccc([N+](=O)[O-])cc3s2)C(=O)C1`, the GI50 in the assay on A549, in the assay with U-251, in the assay on SF-268, with RXF 393, in the assay with HOP-92 and in the assay with NCI-H522 was > 100 µM (inactive) in each case. The GI50 with DLD-1 was > 100 µM (inactive); in the assay on NCI-H226 it was 55.5 µM (inactive); in the assay with SR it was > 100 µM (inactive); with SF-295 it was > 100 µM (inactive); in the assay with M14 it was > 100 µM (inactive); with CAKI-1, > 100 µM (inactive). Also, the GI50 in the assay with HL-60, in the assay on TK-10, with IGROV-1, in the assay with OVCAR-5, in the assay on UACC-62 and in the assay with HT-29 was > 100 µM (inactive) each time. Further, the GI50 in the assay with Malme-3M is > 100 µM (inactive).

As to `CN(C)CCCn1cnc2ncccc2c1=O`, the GI50 in the assay on A549, in the assay on U-251, in the assay with SF-268, with RXF 393, in the assay on HOP-92 and in the assay with NCI-H522 was > 100 µM (inactive) throughout. Moreover, the GI50 with DLD-1, with NCI-H226, in the assay on SR, with SF-295, with M14 and in the assay with CAKI-1 was > 100 µM (inactive) each time. The GI50 in the assay with TK-10, in the assay on IGROV-1, in the assay on OVCAR-5, in the assay on UACC-62, in the assay on HT-29 and in the assay with Malme-3M was > 100 µM (inactive) throughout.

Consider `O=C(Cc1nc2ccccc2o1)C(=O)Nc1cccc(Cl)c1`, for which the GI50 with A549, in the assay on U-251, with SF-268, in the assay with RXF 393, in the assay on HOP-92 and in the assay on NCI-H522 was > 100 µM (inactive) in each case. The GI50 with DLD-1, with NCI-H226, with SR, with SF-295, with M14 and with CAKI-1 was > 100 µM (inactive) each time. The GI50 in the assay on HL-60, in the assay on TK-10, in the assay on IGROV-1, in the assay on UACC-62, with HT-29 and in the assay on Malme-3M was > 100 µM (inactive) throughout.
